Activity calls are given as the source filed them. The calls are words filed in the database; no cut-off is given here.
Key:
PC-3 [1] = experiment: Antiproliferative activity against human PC3 cells after 3 days by NR assay; format: functional, cell-based
[2] = (§1) Inhibition of 5-alpha-reductase in rat liver microsome assessed as conversion of [14C] testosterone to [14C] dihydrotestosterone; format: microsomes
[3] = Cytotoxicity against mouse RAW264 cells assessed as viable cells at 25 uM after 3 days by WST1 assay; format: cell-based; conditions: read-out: Activity
PC-3 [4] = experiment: Antiproliferative activity against human PC3 cells at 12.5 to 50 uM after 3 days by NR assay; format: functional, cell-based
LNCaP [5] = experiment: Growth inhibition of human LNCAP cells assessed as decrease in cell viability after 3 days by NR assay; format: functional, cell-based
LNCaP [6] = experiment: Growth inhibition against testosterone-induced human LNCAP cell proliferation assessed as decrease in cell viability after 3 dayssby NR assay; format: functional, cell-based
Rattus norvegicus = species: Rattus norvegicus; experiment: as §1; format: microsomes
[7] = Inhibition of osteoclastogenesis in RANKL-stimulated mouse RAW264 cells at 12.5 uM after 3 days by TRAP assay; format: functional; conditions: RAW264.7, 72 h
LNCaP [8] = experiment: Growth inhibition against dihydrotestosterone-induced human LNCAP cell proliferation assessed as decrease in cell viability after 3 dayssby NR assay; format: functional, cell-based
[9] = target: T1, Androgen receptor (Homo sapiens) (UniProt P10275); experiment: Inhibition of DHT binding to human recombinant androgen receptor ligand binding domain at 15 uM by fluorescence polarization; set-up: scale not given: the % may be the effect or the level left
T1 sequence (whole entry): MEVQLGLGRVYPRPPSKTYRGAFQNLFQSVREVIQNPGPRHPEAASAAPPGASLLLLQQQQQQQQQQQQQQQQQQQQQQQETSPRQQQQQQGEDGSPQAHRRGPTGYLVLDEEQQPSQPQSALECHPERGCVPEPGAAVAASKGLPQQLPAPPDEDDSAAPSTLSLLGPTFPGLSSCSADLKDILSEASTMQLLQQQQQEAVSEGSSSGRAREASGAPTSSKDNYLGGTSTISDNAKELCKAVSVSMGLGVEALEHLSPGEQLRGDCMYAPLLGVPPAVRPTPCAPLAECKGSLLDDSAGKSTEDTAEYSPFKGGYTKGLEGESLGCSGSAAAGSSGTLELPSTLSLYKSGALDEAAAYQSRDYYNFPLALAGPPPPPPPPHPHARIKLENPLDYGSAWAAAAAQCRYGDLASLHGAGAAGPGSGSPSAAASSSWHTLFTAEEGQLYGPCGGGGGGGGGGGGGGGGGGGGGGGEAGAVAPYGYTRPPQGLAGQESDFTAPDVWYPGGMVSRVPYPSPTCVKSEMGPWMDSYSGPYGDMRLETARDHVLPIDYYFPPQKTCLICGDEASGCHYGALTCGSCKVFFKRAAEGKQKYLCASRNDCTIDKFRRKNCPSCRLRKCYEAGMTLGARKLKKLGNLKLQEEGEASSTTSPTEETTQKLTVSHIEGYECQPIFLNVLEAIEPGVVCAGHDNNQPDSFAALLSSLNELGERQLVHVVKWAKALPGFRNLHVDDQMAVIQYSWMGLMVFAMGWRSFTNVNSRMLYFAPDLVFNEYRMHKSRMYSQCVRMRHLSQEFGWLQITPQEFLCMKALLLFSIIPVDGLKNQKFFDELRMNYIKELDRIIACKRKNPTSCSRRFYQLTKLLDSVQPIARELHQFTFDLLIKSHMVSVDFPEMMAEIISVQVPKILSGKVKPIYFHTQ

[10] = Cytotoxicity against mouse RAW264 cells assessed as cell number at 12.5 uM after 3 days by WST1 assay; format: cell-based; conditions: raw264, 72 h
RAW264 = experiment: Inhibition of osteoclastogenesis in RANKL-stimulated mouse RAW264 cells at 25 uM after 3 days by TRAP assay; format: functional, cell-based

With `C/C(=C\CC[C@@H](C)[C@H]1CC[C@@]2(C)C3=CC[C@H]4C(C)(C)[C@@H](O)CC[C@]4(C)C3=CC[C@]12C)CO` the Activity (PC-3 [1]) was “inactive”.

`CC(C)(C)NC(=O)[C@H]1CC[C@H]2[C@@H]3CC[C@H]4NC(=O)C=C[C@]4(C)[C@H]3CC[C@]12C` [FINASTERIDE] showed an IC50 [2] of 0.73 µM.

In the case of `C/C(=C/CC[C@@H](C)[C@H]1CC[C@@]2(C)C3=C(CC[C@]12C)[C@@]1(C)CCC(=O)C(C)(C)[C@@H]1CC3=O)C(=O)O` [GANODERIC ACID DM], the viability at 72 h, 25 µM [3] is reported as 72%, the Activity (PC-3 [4]) is reported as “Active” and the Activity (LNCaP [5]) is reported as “Dose-dependent effect”. For the same compound, the Activity (LNCaP [6]) was “Dose-dependent effect”, the IC50 [2] was 10.6 µM and the Activity (Rattus norvegicus) was “Dose-dependent effect”. For the same compound, the inhibition at 12.5 µM [7] was 40%, the Activity (LNCaP [8]) was “Dose-dependent effect” and the Activity [9] was 50%. The Activity [10] was “Non-toxic” and the Activity (RAW264) was “inactive”.

Compound `CC/C=C\C/C=C\C/C=C\CCCCCCCC(=O)O` [LINOLENIC ACID] has an IC50 [2] of 116 µM.
